Assay results taken from ChEMBL document CHEMBL5291721, “A preclinical secondary pharmacology resource illuminates target-adverse drug reaction associations of marketed drugs” (Nat Commun, 2023).

Assays:
Cannabinoid receptor 1 = Cannabinoid receptor 1 (Homo sapiens, UniProt P21554); format: functional, cell-based
[1] = target: Beta-1 adrenergic receptor (Homo sapiens, UniProt P08588); format: functional
[2] = target: T1, Equilibrative nucleoside transporter 1 (Homo sapiens, UniProt Q99808)
T1 sequence (Q99808 whole entry): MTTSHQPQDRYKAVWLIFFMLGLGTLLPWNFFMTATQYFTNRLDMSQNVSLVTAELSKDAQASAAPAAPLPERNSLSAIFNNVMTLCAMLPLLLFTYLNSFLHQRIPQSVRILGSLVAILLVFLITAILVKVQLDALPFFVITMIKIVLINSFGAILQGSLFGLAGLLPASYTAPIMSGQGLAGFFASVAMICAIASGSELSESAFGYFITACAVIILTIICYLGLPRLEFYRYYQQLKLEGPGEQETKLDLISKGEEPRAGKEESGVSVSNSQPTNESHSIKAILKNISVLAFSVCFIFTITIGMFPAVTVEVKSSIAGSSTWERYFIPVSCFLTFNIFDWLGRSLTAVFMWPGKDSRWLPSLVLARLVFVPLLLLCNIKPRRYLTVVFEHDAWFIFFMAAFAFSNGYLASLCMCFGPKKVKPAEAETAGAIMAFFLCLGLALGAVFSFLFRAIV

Vasopressin V1a receptor = Vasopressin V1a receptor (Homo sapiens, UniProt P37288)
Chain of Vasopressin V1a receptor (P37288 whole entry): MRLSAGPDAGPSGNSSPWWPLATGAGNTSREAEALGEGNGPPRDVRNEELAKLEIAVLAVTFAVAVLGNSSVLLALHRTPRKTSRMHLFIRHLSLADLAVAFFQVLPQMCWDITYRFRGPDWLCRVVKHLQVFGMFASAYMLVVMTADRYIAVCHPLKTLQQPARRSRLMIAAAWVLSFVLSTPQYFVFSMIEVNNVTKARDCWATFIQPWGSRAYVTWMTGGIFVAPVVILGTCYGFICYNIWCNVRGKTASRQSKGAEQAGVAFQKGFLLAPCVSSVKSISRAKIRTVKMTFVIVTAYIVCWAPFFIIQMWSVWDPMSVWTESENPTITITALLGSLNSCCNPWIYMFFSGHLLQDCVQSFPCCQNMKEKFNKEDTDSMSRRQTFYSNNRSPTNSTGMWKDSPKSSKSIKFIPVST

[3] = target: 5-hydroxytryptamine receptor 2A (Homo sapiens, UniProt P28223); format: functional, cell-based
Chain of 5-hydroxytryptamine receptor 2A (P28223 whole entry): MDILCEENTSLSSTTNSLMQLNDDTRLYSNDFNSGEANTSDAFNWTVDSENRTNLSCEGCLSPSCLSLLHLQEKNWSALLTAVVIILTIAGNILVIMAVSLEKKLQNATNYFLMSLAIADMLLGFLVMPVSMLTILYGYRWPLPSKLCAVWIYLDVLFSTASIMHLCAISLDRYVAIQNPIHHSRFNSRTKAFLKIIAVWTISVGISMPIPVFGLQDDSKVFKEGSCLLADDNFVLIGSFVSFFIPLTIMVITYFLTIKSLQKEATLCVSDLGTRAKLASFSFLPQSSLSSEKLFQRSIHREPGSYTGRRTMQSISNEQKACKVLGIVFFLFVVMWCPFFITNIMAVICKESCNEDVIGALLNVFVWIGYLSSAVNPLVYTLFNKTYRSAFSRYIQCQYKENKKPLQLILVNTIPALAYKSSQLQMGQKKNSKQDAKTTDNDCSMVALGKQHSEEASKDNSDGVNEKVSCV

B2 bradykinin receptor = target: T2, B2 bradykinin receptor (Homo sapiens, UniProt P30411)
T2 sequence (P30411 whole entry): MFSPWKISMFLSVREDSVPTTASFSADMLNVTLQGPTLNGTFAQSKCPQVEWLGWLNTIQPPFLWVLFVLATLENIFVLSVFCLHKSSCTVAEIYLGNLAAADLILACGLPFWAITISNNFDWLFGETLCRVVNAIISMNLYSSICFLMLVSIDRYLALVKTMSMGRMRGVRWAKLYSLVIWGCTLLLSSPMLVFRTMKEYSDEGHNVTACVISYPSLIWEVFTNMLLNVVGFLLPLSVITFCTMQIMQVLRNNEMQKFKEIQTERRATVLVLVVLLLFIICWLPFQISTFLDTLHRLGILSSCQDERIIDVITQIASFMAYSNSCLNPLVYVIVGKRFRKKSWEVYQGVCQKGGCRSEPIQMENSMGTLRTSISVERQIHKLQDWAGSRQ

Endothelin-1 receptor = target: T3, Endothelin-1 receptor (Homo sapiens, UniProt P25101)
T3 sequence (P25101 whole entry): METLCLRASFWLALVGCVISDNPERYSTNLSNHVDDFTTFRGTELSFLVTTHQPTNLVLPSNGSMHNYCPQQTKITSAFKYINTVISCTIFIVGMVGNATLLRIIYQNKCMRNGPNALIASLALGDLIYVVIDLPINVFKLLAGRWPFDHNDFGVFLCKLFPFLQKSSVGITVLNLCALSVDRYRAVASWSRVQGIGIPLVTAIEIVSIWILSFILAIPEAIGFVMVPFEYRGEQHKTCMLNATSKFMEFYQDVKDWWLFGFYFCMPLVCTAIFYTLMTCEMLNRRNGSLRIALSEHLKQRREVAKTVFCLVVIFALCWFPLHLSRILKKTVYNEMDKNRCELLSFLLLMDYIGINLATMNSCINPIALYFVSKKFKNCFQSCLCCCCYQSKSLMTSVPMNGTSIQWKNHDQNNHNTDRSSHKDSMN

Adenosine receptor A1 = target: T4, Adenosine receptor A1 (Homo sapiens, UniProt P30542)
T4 sequence (P30542 whole entry): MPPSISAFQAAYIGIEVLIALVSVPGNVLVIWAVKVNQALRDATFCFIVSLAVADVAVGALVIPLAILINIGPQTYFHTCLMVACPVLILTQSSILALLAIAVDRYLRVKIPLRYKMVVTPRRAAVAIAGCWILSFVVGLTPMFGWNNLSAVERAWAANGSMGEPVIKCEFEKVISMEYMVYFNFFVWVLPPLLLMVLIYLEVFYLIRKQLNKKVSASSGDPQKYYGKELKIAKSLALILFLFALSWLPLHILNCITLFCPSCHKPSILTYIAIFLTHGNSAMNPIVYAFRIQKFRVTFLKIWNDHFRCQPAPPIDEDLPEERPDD

Adenosine receptor A2a = Adenosine receptor A2a (Homo sapiens, UniProt P29274)
Chain of Adenosine receptor A2a (P29274 whole entry): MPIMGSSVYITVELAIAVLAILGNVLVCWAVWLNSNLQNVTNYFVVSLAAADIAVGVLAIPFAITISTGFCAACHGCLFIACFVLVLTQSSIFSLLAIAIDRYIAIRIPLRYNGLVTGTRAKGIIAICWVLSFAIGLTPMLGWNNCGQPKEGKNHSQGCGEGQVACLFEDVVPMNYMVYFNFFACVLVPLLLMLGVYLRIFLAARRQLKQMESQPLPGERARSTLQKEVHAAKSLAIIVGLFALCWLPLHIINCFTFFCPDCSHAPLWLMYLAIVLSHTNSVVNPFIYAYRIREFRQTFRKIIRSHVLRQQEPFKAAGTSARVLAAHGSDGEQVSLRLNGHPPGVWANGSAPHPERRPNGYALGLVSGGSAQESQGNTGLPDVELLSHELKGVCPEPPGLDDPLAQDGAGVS

[4] = target: T5, 5-hydroxytryptamine receptor 3A (Homo sapiens, UniProt P46098); format: functional
T5 sequence (P46098 whole entry): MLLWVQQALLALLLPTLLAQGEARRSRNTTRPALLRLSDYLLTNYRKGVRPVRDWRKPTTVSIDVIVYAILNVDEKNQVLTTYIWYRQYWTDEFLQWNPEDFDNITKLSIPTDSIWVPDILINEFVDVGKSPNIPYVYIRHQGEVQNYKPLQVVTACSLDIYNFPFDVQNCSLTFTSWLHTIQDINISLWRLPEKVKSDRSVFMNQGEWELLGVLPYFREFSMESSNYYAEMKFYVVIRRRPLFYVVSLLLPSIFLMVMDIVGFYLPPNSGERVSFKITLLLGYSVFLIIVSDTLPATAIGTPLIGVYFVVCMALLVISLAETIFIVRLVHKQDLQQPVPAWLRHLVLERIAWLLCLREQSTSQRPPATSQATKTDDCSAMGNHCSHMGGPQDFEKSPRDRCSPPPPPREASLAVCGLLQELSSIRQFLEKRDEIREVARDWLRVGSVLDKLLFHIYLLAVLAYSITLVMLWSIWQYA
Also: assay procedure not described here.

Chain of Beta-1 adrenergic receptor (P08588 whole entry): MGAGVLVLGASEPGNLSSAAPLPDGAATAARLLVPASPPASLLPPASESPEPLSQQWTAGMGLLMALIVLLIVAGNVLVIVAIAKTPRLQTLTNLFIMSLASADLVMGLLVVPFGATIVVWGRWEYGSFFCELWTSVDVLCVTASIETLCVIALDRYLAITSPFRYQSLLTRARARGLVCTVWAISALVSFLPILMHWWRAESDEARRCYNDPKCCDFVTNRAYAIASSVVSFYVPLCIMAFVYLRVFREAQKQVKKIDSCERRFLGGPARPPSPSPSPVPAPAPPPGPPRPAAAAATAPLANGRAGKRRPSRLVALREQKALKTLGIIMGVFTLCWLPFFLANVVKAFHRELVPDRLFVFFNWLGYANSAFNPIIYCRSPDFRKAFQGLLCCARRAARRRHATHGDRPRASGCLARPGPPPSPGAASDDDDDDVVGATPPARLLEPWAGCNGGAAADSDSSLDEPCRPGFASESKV
Chain of Cannabinoid receptor 1 (P21554 whole entry): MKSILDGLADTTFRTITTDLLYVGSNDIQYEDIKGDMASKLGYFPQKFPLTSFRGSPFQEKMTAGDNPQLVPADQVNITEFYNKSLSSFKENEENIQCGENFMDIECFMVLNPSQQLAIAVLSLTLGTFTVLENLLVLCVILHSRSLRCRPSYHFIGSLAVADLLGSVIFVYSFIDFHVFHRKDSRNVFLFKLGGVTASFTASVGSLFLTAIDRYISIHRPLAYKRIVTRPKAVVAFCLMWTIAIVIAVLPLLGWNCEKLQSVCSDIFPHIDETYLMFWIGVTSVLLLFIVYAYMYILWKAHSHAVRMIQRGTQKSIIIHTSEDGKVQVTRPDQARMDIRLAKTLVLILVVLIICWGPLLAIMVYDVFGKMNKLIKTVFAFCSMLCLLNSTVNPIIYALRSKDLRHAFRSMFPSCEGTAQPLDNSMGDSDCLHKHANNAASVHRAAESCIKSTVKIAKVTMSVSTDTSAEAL

Compound	AC50 (Cannabinoid receptor 1) [µM]	AC50 [1] [µM]	AC50 [2] [µM]	AC50 (Vasopressin V1a receptor) [µM]	AC50 [3] [µM]	AC50 (B2 bradykinin receptor) [µM]	AC50 (Endothelin-1 receptor) [µM]	AC50 (Adenosine receptor A1) [µM]	AC50 (Adenosine receptor A2a) [µM]	AC50 [4] [µM]
C=CCN1CCCC1CNC(=O)c1cc(S(N)(=O)=O)cc(OC)c1OC (stereo not given) [VERALIPRIDE]	> 30	> 30	> 30	> 30	> 30	> 30	> 30	> 30	> 30	> 30
CC(C)C(=O)c1c(C(C)C)nn2ccccc12 [IBUDILAST]	> 30	> 30	> 30	> 30	> 30	> 30	> 30	20	17	> 30
COC(=O)C1=C(C)NC(C)=C(C(=O)OC2CCCN(Cc3ccccc3)C2)C1c1cccc([N+](=O)[O-])c1 (stereo not given) [BENIDIPINE]	16	> 30	8.2	> 30	> 30	> 30	> 30	> 30	> 30	> 30
CCCCCCOc1ccccc1C(N)=O [EXALAMIDE]	> 30	> 30	> 30	> 30	> 30	> 30	> 30	> 30	> 30	> 30
CCOC(=O)[N-]c1cn(N2CCOCC2)n[o+]1 [MOLSIDOMINE]	> 30	> 30	> 30	> 30	> 30	> 30	> 30	> 30	> 30	> 30
CC(C)OC(=O)CCC/C=C\C[C@@H]1[C@@H](CC[C@@H](O)CCc2ccccc2)[C@H](O)C[C@@H]1O [LATANOPROST]	> 30	> 30	> 30	> 30	> 30	> 30	> 30	> 30	> 30	> 30
CCCCc1ncc(/C=C(\Cc2cccs2)C(=O)O)n1Cc1ccc(C(=O)O)cc1 [EPROSARTAN]	> 30	> 10	> 10	> 30	> 30	> 30	> 30	> 10	> 10	> 10
CCCc1nc(C(C)(C)O)c(C(=O)OCc2oc(=O)oc2C)n1Cc1ccc(-c2ccccc2-c2nnn[nH]2)cc1 [OLMESARTAN MEDOXOMIL]	> 30	> 10	> 50	> 30	> 30	> 30	> 50	> 50	> 10	> 10
CN1C(=O)C(O)N=C(c2ccccc2Cl)c2cc(Cl)ccc21 (stereo not given) [LORMETAZEPAM]	> 30	> 30	> 30	> 30	> 30	> 30	> 30	> 30	> 30	> 30
CCOC(=O)[C@H](CCc1ccccc1)N[C@@H](C)C(=O)N1C(=O)N(C)C[C@H]1C(=O)O	> 30	> 30	> 30	> 30	> 30	> 30	> 30	> 30	> 30	> 30
COc1ccc2c3c1O[C@H]1C(=O)CC[C@@]4(O)[C@@H](C2)N(C)CC[C@]314 [OXYCODONE]	> 30	> 30	> 30	> 30	> 30	> 30	> 30	> 30	> 30	> 30
CC(CC(c1ccccc1)c1ccccc1)NC(C)(C)C (stereo not given) [TERODILINE]	> 30	> 30	> 30	> 30	> 30	> 30	> 30	> 30	> 30	> 30
O=C(O)CCCCCCNC1c2ccccc2CCc2ccccc21 [AMINEPTINE]	> 30	> 30	> 30	> 30	> 30	> 30	> 30	> 30	> 30	> 30
CCC1(CC)C(=O)NCC(C)C1=O (stereo not given) [METHYPRYLON]	> 30	> 30	> 30	> 30	> 30	> 30	> 30	> 30	> 30	> 30
CCN1CCN(C(=O)N[C@@H](C(=O)N[C@@H]2C(=O)N3C(C(=O)O)=C(CSc4nnnn4C)CS[C@H]23)c2ccc(O)cc2)C(=O)C1=O [CEFOPERAZONE]	> 30	> 30	> 30	> 30	> 30	> 30	> 30	> 30	> 30	> 30
CN1C(=O)C(O)N=C(c2ccccc2)c2cc(Cl)ccc21 (stereo not given) [TEMAZEPAM]	> 30	> 10	> 30	> 10	> 30	> 30	> 30	> 30	> 30	> 30
CCN(CC)C(=O)N[C@H]1C[C@@H]2c3cccc4[nH]cc(c34)C[C@H]2N(C)C1 [TERGURIDE]	> 30	3.2	> 30	> 30	0.48	> 30	> 30	> 30	> 30	> 30
